{"source": "patent US20030073812A1", "about": "“Non-endogenous, constitutively activated versions of plant G protein-coupled receptor: GCR1” (priority 2001, published 2003)", "key": {"[1]": {"system": "wild-type GCR1 (\"wt\") BY-2 cells", "assay": "Thymidine incorporation in synchronized BY-2 cells, wild-type GCR1", "assay_type": "cell-based, tobacco (Nicotiana tabacum)", "conditions": "3 μM and 10 μM ABA; BY-2 cells with wild-type GCR1; measured over time; FIG. 11A", "experimental": "(§1) Agrobacterium tumefaciens were transformed with the pMON-GCR1 plasmid and used to produce transgenic BY-2 cell lines. BY-2 cells were transformed according to the method disclosed in An, G. Plan Physiol. 79, 568-570 (1985). The selected transgenic alli were grown in the dark on selective medium at the 24° C. and transferred to fresh medium every 4 week. Liquid cultures were obtained for the different transgenic lines and synchronization was achieved by a 24-h subculture in 5 mg/liter aphidicolin. See, Combettes, B. et al., Methods Cells Sci., 21, 109-121 (1991).\n(§2) DNA synthesis is measured by incubating 1 ml samples of the synchronized cell suspension with 1 μCi of [^3H] thymidine for 20 minutes at 27° C. in Eppendorf microtubes with gentle shaking. Cells were collected by centrifugation for 5 minutes at 1,800× g, and the pellet was frozen in dry ice. DNA was extracted with Plant DNAzol Reagent (GIBCO/BRL), resuspended in water, and the [^3H] radioactivity was determined with a scintillation counter.\n(§3) To determine the effect of the non-endogenous, constitutively activated version of GCR1, […], on the cell cycle, control cell (empty vector), wild-type GCR1 (“wt”) and R271P overexpressing BY-2 cells were synchronized with aphidicolin for 24 h, and, after removal of the cell cycle blocker, thymidine incorporation was measured. (See, FIG. 10). […]"}, "[2]": {"system": "non-endogenous, constitutively activated version of GCR1, R271P, BY-2 cells", "assay": "Thymidine incorporation in synchronized BY-2 cells, constitutively activated GCR1 R271P", "assay_type": "cell-based, tobacco (Nicotiana tabacum)", "conditions": "3 μM and 10 μM ABA; BY-2 cells with R271P GCR1; measured over time; FIG. 11B", "experimental": "as §1, §2, §3"}}}
{"smiles": "CC1=CC(=O)CC(C)(C)C1(O)/C=C/C(C)=C\\C(=O)O", "note": "(centres unmarked) [ABA, Abscissic Acid]", "values": [{"measurement": "thymidine incorporation (DNA synthesis)", "setting": "[1]", "value": "decreases thymidine incorporation"}, {"measurement": "thymidine incorporation (DNA synthesis)", "setting": "[2]", "value": "not affected"}]}
